What was measured:
human VR1 receptors = target: T1, human VR1 receptors (Homo sapiens, UniProt Q8NER1); experiment: Human VR1 antagonist assay (Ca2+ imaging); type: cell-based; conditions: cells expressing human VR1, fura-2 Ca2+ imaging, FDSS 6000; capsaicin (300 nM) or acid (pH5.8) stimulation, table does not say which
T1 construct: host or cells: cells highly expressing human VR1; cell type not specified
Excerpt: Human VR1 Antagonist Assay
VR1 antagonistic activity can be determined by the Ca^2+ imaging assay using human VR1 highly expressing cells. The cells that highly express human VR1 receptors are obtainable from several different conventional methods. The one standard method is cloning from human Dorsal Root Ganglion (DRG) or kidney according to the methods such as described in the journal article; Nature, 389, pp 816-824, 1997. Alternatively VR1 receptors highly expressing human keratinocytes are also known and published in the journal article (Biochemical and Biophysical Research Communications, 291, pp 124-129, 2002). […] Further more, the method to up regulate human VR1 gene, which is usually a silent gene or don't produce detectable level of VR1 receptors, is also available to obtain propriety cells. Such genetic modification method was described in detail; Nat. Biotechnol., 19, pp 440-445, 2001.
The cells that express human VR1 receptors were maintained in culture flask at 37° C. in an environment containing 5% CO2 until use in the assay. The intracellular Ca^2+ imaging assay to determine VR1 antagonistic activities were done by following procedures.
The culture medium was removed from the flask and fura-2/AM fluorescent calcium indicator was added to the flask at a concentration of 5 μM in the medium. The flask was placed in CO2 incubator and incubated for 1 hour. Then the cells expressing the human VR1 receptors were detached from the flask follow by washing with phosphate buffer saline, PBS(−) and re-suspended in assay buffer. The 80 μl of aliquot of cell suspension (3.75×10^5 cells/ml) was added to the assay plate and the cells were spun down by centrifuge (950 rpm, 20° C., 3 minutes).
Capsaicin Stimulation Assay:
The capsaicin-induced changes in the intracellular calcium concentration were monitored using FDSS 6000 (Hamamatsu Photonics, Japan), a fluorometric imaging system. The cell suspension in Krebs-Ringer HEPES (KRH) buffer (115 mM NaCl, 5.4 mM KCl, 1 mM MgSO4, 1.8 mM CaCl2, 11 mM D-Glucose, 25 mM HEPES, 0.96 mM Na2HPO4, pH 7.3) were pre-incubated with varying concentrations of the test compounds or KRH buffer (buffer control) for 15 minutes at room temperature under the dark condition. Then capsaicin solution, which gives 300 nM in assay mixture, was automatically added to the assay plate by the FDSS 6000.
The Acid-induced changes in the intracellular calcium concentration were monitored using FDSS 6000 (Hamamatsu Photonics, Japan), a fluorometric imaging system. The cell suspension in resting buffer (HBSS supplemented with 10 mM HEPES, pH 7.4) were pre-incubated with varying concentrations of the test compounds or resting buffer (buffer control) for 15 minutes at room temperature under the dark condition. The cells were automatically added the stimulating solution (HBSS supplemented with MES, final assay buffer pH5.8) by the FDSS 6000.
Determination of Antagonist Activity
The monitoring of the changes in the fluorescence signals (λex=340 nm/380 nm, λem=510-520 nm) was initiated at 1 minute prior to the addition of capsaicin solution or acidic buffer and continued for 5 minute.

[1] = Half-life in Human Liver Microsomes (HLM); conditions: human, human liver microsomes (HL101), pH 7.4
Protocol: Test compounds (1 μM) were incubated with 3.3 mM MgCl2 and 0.78 mg/mL HLM (HL101) in 100 mM potassium phosphate buffer (pH 7.4) at 37° C. on the 96-deep well plate. The reaction mixture was split into two groups, a non-P450 and a P450 group. NADPH was only added to the reaction mixture of the P450 group. An aliquot of samples of P450 group was collected at 0, 10, 30, and 60 min time point, where 0 min time point indicated the time when NADPH was added into the reaction mixture of P450 group. An aliquot of samples of non-P450 group was collected at −10 and 65 min time point. Collected aliquots were extracted with acetonitrile solution containing an internal standard. The precipitated protein was spun down in centrifuge (2000 rpm, 15 min). The compound concentration in supernatant was measured by LC/MS/MS system.
The half-life value was obtained by plotting the natural logarithm of the peak area ratio of compounds/internal standard versus time. The slope of the line of best fit through the points yields the rate of metabolism (k).

T1 sequence (Q8NER1 whole entry): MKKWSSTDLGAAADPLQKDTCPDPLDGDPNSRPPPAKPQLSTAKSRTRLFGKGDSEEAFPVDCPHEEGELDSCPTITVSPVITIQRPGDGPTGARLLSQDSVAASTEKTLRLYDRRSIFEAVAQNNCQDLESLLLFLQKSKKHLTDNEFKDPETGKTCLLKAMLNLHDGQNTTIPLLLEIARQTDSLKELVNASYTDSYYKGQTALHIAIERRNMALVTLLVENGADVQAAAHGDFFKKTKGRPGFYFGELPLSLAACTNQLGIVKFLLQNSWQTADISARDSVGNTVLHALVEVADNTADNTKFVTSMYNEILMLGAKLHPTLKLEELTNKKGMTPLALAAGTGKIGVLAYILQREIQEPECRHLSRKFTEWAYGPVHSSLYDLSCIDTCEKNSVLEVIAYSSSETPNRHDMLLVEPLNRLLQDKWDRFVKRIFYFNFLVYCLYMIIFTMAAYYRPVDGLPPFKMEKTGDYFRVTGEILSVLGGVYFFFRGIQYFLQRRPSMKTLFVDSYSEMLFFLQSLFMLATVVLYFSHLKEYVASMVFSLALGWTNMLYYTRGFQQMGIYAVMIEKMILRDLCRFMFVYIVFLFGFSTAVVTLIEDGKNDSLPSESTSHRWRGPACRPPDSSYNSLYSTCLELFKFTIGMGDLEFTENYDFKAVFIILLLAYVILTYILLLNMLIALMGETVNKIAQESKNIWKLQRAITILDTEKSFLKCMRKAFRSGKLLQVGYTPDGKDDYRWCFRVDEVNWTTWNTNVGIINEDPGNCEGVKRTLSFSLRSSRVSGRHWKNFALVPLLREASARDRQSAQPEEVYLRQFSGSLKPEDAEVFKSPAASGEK

SMILES	IC50 (human VR1 receptors) [nM]	half-life at 1 μM [1] [min]
CC[C@@H](NC(=O)[C@H]1C[C@]1(C)c1ccc(C(F)(F)F)cc1)c1ccc(NS(C)(=O)=O)cc1 [Example 31, (1S,2S)-2-Methyl-N-((1R)-1-{4-[(methylsulfonyl)amino]phenyl}propyl)-2-[4-(trifluoromethyl)phenyl]cyclopropanecarboxamide]	192	> 120
CCc1cc([C@@H](C)NC(=O)[C@H]2C[C@]2(C)c2ccc(C(F)(F)F)cc2)ccc1NS(C)(=O)=O [Example 32, (1S,2S)-N-((1R)-1-{3-Ethyl-4-[(methylsulfonyl)amino]phenyl}ethyl)-2-methyl-2-[4-(trifluoromethyl)phenyl]cyclopropanecarboxamide]	0.934	10.8
CCc1cc([C@@H](C)NC(=O)[C@H]2C[C@@H]2c2ccc(C(F)(F)F)cc2)ccc1NS(C)(=O)=O [Example 33, N-((1R)-1-{3-Ethyl-4-[(methylsulfonyl)amino]phenyl}ethyl)-2-[4-(trifluoromethyl)phenyl]cyclopropanecarboxamide]	56.2	39
CC[C@@H](NC(=O)[C@H]1C[C@]1(C)c1ccc(C(F)(F)F)cc1)c1ccc(NS(C)(=O)=O)c(C)c1 [Example 34, (1S,2S)-2-Methyl-N-((1R)-1-{3-methyl-4-[(methylsulfonyl)amino]phenyl}propyl)-2-[4-(trifluoromethyl)phenyl]cyclopropanecarboxamide]	4.72	> 120
Cc1cc([C@@H](C)NC(=O)[C@H]2C[C@]2(C)c2ccc(C(C)(C)C(F)(F)F)cc2)ncc1NS(C)(=O)=O [Example 37, 2-Methyl-N-((1R)-1-{4-methyl-5-[(methylsulfonyl)amino]pyridin-2-yl}ethyl)-2-[4-(2,2,2-trifluoro-1,1-dimethylethyl)phenyl]cyclopropanecarboxamide]	197	41

Second part, the molecule after the results:

IC50 (human VR1 receptors) [nM]	half-life at 1 μM [1] [min]	SMILES
70.9	40	C[C@@H](NC(=O)[C@H]1C[C@@H]1c1cc(F)c(C(C)(C)C)c(F)c1)c1ccc(NS(C)(=O)=O)cc1 [Example 38, 2-[4-tert-Butyl-3,5-difluorophenyl]-N-((1R)-1-{4-[(methylsulfonyl)amino]phenyl}ethyl)cyclopropanecarboxamide]
9.12	15	Cc1cc([C@@H](C)NC(=O)[C@H]2C[C@@H]2c2cc(F)c(C(C)(C)C)c(F)c2)ccc1NS(C)(=O)=O [Example 39, 2-(4-tert-Butyl-3,5-difluorophenyl)-N-((1R)-1-{3-methyl-4-[(methylsulfonyl)amino]phenyl}ethyl)cyclopropanecarboxamide]
32.5	35	C[C@@H](NC(=O)[C@H]1C[C@@H]1c1cc(F)c(C(C)(C)C)c(F)c1)c1ccc(NS(C)(=O)=O)c(F)c1 [Example 40, 2-(4-tert-Butyl-3,5-difluorophenyl)-N-((1R)-1-{3-fluoro-4-[(methylsulfonyl)amino]phenyl}ethyl)cyclopropanecarboxamide]
0.234	21	Cc1cc([C@@H](C)NC(=O)[C@H]2C[C@]2(C)c2ccc(C(F)(F)F)cc2)c(F)cc1NS(C)(=O)=O [Example 41, (1S,2S)-N-((1R)-1-{2-Fluoro-5-methyl-4-[(methylsulfonyl)amino]phenyl}ethyl)-2-methyl-2-[4-(trifluoromethyl)phenyl]cyclopropanecarboxamide]
0.713	19.7	Cc1cc([C@@H](C)NC(=O)[C@H]2C[C@]2(C)c2ccc(C(F)(F)F)c(F)c2)c(F)cc1NS(C)(=O)=O [Example 42, N-((1R)-1-{2-Fluoro-5-methyl-4-[(methylsulfonyl)amino]phenyl}ethyl)-2-[3-fluoro-4-(trifluoromethyl)phenyl]-2-methylcyclopropanecarboxamide]
20.7	41	C[C@@H](NC(=O)[C@H]1C[C@]1(C)c1cc(F)c(C(C)(C)C)c(F)c1)c1ccc(NS(C)(=O)=O)cc1 [Example 43, 2-(4-tert-Butyl-3,5-difluorophenyl)-2-methyl-N-((1R)-1-{4-[(methylsulfonyl)amino]phenyl}ethyl)cyclopropanecarboxamide]

Source: patent US7915448B2, “Substituted sulfonylaminoarylmethyl cyclopropanecarboxamide as VR1 receptor antagonists” (Pfizer Inc., priority 2005, dated 2011)
